Results reported in patent US20250069697A1, “AN IMPROVED METHOD TO IDENTIFY NUCLEIC ACID SEQUENCES WITHIN A SET OF SEQUENCES OBTAINED BY A SEQUENCER AND A SYSTEM” (priority 2022, published 2025).

Experiments:
Format in all cases: cell-based
Klebsiella pneumoniae = test: Growth of the isolate in antibiotic mediums, sample 1; settings: microorganism isolated in sample 1 (Klebsiella pneumoniae); grown in antibiotic medium
Description: (§1) Each microorganism was growth in at least two antibiotic mediums, in which the improved method predicted resistance, and at least two antibiotic mediums in which the improved method predicted susceptibility, in order to corroborate the obtained results.

Staphylococcus aureus = test: Growth of the isolate in antibiotic mediums, sample 2; settings: microorganism isolated in sample 2 (Staphylococcus aureus); grown in antibiotic medium
Description: as §1

Enterococcus faecalis = test: Growth of the isolate in antibiotic mediums, sample 3; settings: microorganism isolated in sample 3 (Enterococcus faecalis); grown in antibiotic medium
Description: as §1

[1] = system: Staphylococcus epidermidis; test: Growth of the isolate in antibiotic mediums, sample 4; settings: microorganism isolated in sample 4 (Staphylococcus epidermidis); grown in antibiotic medium
Description: as §1

Escherichia coli = test: Growth of the isolate in antibiotic mediums, sample 5; settings: microorganism isolated in sample 5 (Escherichia coli); grown in antibiotic medium
Description: as §1

Compound | Result (Klebsiella pneumoniae) | Result (Staphylococcus aureus) | Result (Enterococcus faecalis) | Result [1] | Result (Escherichia coli)
NCC[C@H](O)C(=O)N[C@@H]1C[C@H](N)[C@@H](O[C@H]2O[C@H](CN)[C@@H](O)[C@H](O)[C@H]2O)[C@H](O)[C@H]1O[C@H]1O[C@H](CO)[C@@H](O)[C@H](N)[C@H]1O [Amikacin] | Not resistant | Not resistant | Not resistant | Not resistant | Not resistant
COc1cccc(OC)c1C(=O)N[C@@H]1C(=O)N2[C@@H]1SC(C)(C)[C@@H]2C(=O)O [Methicillin] | Not resistant | Not resistant | – | Not resistant | Not resistant
CO/N=C(\C(=O)N[C@@H]1C(=O)N2C(C(=O)O)=C(CSc3nc(=O)c(=O)[nH]n3C)CS[C@H]12)c1csc(N)n1 [Ceftriaxone] | Resistant | – | – | Resistant | Resistant
O=C(O)c1cn(C2CC2)c2cc(N3CCNCC3)c(F)cc2c1=O [Ciprofloxacin] | Resistant | Resistant | Not resistant | Resistant | Resistant
CC[C@H]1OC(=O)[C@H](C)[C@@H](O[C@H]2C[C@@](C)(OC)[C@@H](O)[C@H](C)O2)[C@H](C)[C@@H](O[C@@H]2O[C@H](C)C[C@H](N(C)C)[C@H]2O)[C@](C)(O)C[C@@H](C)CN(C)[C@H](C)[C@@H](O)[C@]1(C)O [azithromycin] | – | Resistant | – | – | –
